From patent publication US20240246992A1, “MACROCYCLIC LRRK2 KINASE INHIBITORS” (LES LABORATOIRES SERVIER, priority 2021, published 2024)

molecular target: human recombinant LRRK2 protein (Homo sapiens, UniProt Q5S007); assay: LRRK2 kinase activity assay (ADP-Glo, LRRKtide peptide); format: biochemical; conditions: human recombinant LRRK2 wt, LRRKtide peptide and ATP, 1 h at 37° C.
In short: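 Human recombinant LRRK2 reacted with LRRKtide peptide and ATP for 1 h at 37 °C in the presence of compound. ADP formed measured by ADP-Glo luminescence; IC50 fitted from 10 concentrations run in duplicate.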

human recombinant LRRK2 protein, sequence (Q5S007 whole entry): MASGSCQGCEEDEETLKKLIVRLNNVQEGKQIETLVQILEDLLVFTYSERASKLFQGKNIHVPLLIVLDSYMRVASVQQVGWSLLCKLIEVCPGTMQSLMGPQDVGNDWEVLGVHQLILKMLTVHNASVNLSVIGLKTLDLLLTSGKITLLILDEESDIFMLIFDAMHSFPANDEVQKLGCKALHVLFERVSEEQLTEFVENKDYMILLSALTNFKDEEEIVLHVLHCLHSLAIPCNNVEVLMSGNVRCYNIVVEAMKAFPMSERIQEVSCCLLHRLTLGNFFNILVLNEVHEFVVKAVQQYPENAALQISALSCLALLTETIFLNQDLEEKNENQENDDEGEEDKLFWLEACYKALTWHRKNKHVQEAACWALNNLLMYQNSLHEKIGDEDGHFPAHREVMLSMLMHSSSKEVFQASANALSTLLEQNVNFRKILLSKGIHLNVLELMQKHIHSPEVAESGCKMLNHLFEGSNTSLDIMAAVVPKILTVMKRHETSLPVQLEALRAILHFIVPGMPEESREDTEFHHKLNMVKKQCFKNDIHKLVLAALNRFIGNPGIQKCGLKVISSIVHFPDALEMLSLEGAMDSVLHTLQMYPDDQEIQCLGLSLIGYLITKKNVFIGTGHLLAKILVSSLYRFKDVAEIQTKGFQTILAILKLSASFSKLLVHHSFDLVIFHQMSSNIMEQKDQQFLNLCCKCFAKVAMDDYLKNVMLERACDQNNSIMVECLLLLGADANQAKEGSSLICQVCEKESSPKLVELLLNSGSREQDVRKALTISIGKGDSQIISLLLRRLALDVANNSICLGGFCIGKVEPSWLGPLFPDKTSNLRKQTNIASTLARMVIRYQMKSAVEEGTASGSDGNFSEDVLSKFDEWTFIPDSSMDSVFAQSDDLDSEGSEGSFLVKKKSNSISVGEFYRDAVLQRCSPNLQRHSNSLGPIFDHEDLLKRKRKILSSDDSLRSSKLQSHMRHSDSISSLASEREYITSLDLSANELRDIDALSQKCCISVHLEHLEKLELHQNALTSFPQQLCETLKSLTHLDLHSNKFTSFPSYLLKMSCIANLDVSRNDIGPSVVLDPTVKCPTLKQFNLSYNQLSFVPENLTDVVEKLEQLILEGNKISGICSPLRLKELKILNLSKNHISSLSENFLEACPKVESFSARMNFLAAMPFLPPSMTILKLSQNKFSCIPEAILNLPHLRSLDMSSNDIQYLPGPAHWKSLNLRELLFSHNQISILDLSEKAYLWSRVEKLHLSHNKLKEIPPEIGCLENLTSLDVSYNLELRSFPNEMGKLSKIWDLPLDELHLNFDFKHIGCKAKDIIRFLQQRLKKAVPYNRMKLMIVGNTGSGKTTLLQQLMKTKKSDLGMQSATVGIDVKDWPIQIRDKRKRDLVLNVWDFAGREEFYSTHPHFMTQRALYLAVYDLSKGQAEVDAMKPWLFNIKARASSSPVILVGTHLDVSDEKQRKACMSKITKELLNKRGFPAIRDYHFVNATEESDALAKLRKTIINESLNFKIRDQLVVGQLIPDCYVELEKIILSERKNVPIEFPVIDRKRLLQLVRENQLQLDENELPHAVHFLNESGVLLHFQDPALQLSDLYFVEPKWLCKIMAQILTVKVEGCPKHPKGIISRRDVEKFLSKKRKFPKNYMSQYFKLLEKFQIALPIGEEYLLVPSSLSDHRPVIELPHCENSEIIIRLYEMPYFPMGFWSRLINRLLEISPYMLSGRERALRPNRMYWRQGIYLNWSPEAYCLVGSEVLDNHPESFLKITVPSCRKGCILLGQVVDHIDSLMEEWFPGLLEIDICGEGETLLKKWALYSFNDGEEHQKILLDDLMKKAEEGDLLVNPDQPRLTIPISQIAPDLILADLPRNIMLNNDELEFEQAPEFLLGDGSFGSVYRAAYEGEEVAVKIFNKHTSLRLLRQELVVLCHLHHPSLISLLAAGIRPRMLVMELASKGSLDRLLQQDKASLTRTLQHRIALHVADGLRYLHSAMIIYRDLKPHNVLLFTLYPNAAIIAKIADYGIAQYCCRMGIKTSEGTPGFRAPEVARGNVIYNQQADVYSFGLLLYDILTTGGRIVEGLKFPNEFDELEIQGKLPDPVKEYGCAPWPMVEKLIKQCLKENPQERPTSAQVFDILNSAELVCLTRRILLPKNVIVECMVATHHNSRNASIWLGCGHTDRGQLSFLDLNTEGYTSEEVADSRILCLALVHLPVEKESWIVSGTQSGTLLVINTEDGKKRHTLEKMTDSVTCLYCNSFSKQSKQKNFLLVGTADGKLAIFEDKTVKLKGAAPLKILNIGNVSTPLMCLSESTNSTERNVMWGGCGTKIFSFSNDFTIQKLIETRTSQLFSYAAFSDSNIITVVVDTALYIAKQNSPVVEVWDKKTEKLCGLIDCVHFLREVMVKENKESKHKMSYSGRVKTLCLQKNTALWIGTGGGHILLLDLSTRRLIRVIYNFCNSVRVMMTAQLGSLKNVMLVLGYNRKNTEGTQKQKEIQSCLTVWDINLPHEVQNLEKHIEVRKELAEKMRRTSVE

| SMILES | IC50 [nM] |
| --- | --- |
| C[C@@H]1Oc2ccc3[nH]nc(c3c2)-c2cnn(c2)CCOCCO[C@@H]1C [Example 100, (12R,13S)-12,13-dimethyl-8,11,14-trioxa-4,5,19,20-tetraazatetra cyclo[13.5.2.1^2,5.0^18,21]tricosa-1(20),2(23),3,15(22),16,18(21)-hexaene] | < 100 |
| C[C@@H]1CCOCC(F)(F)COc2ccc3[nH]nc(c3c2)-c2cnn1c2 [Example 109, (6R)-11,11-difluoro-6-methyl-9,13-dioxa-4,5,18,19-tetraazatetracyclo [12.5.2.1^2,5.0^17,20]docosa-1(19),2(22),3,14(21),15,17(20)-hexaene] | < 100 |
| FC1(F)COCCCn2cc(cn2)-c2n[nH]c3ccc(cc23)OC1 [Example 111, 11,11-difluoro-9,13-dioxa-4,5,18,19-tetraazatetracyclo[12.5.2.1^2,5.0^17,20] docosa-1(19),2(22),3,14(21),15,17(20)-hexaene] | < 100 |
| C[C@@H]1CCO[C@@H](C)CCOc2ccc3[nH]nc(c3c2)-c2cnn1c2 [Example 116, (6R,10S)-6,10-dimethyl-9,13-dioxa-4,5,18,19-tetraazatetracyclo[12.5.2.1^2,5.0^17,20]docosa-1(19),2(22),3,14(21),15,17(20)-hexaene] | < 100 |
| C[C@@H]1C[C@@H](C)n2cc(cn2)-c2n[nH]c3ccc(cc23)OCCCO1 [Example 117, (6R,8R)-6,8-dimethyl-9,13-dioxa-4,5,18,19-tetraazatetracyclo[12.5.2.1^2,5.0^17,20] docosa-1(19),2(22),3,14(21),15,17(20)-hexaene] | < 100 |
| C[C@H]1COCCCOCc2nc(cn2C)-c2n[nH]c3ccc(cc23)O1 [Example 119, (13S)-4,13-dimethyl-7,11,14-trioxa-4,19,20,23-tetraazatetracyclo [13.5.2.1^2,5.0^18,21]tricosa-1(20),2,5(23),15(22),16,18(21)-hexaene] | < 1000 |
| C[C@H]1CCCOCCn2ncc(n2)-c2n[nH]c3ccc(cc23)O1 [Example 122, (12S)-12-methyl-8,13-dioxa-4,5,18,19,22-pentaazatetracyclo[12.5.2.1^2,5.0^17,20]docosa-1(19),2(22),3,14(21),15,17(20)-hexaene] | < 10 |
| C[C@@H]1CCOc2ccc3[nH]nc(c3c2)-c2cnn(c2)[C@H](C)CCO1 [Example 123, (6R,10R)-6,10-dimethyl-9,13-dioxa-4,5,18,19-tetraazatetracyclo[12.5.2.1^2,5.0^17,20]docosa-1(19),2(22),3,14(21),15,17(20)-hexaene] | < 10 |
| C[C@@H]1CCCOCCn2ncc(n2)-c2n[nH]c3ccc(cc23)O1 [Example 124, (12R)-12-methyl-8,13-dioxa-4,5,18,19,22-pentaazatetracyclo [12.5.2.1^2,5.0^17,20]docosa-1(19),2(22),3,14(21),15,17(20)-hexaene] | < 10 |
| C[C@@H]1CCOCCCc2ncn(n2)-c2n[nH]c3ccc(cc23)O1 [Example 125, (12R)-12-methyl-9,13-dioxa-2,4,18,19,22-pentaazatetracyclo[12.5.2.1^2,5.0^17,20]docosa-1(19),3,5(22),14(21),15,17(20)-hexaene] | < 10 |
| C[C@@H]1C[C@@H](C)Oc2ccc3[nH]nc(c3c2)-c2cnn(c2)CCCO1 [Example 126, (10R,12R)-10,12-dimethyl-9,13-dioxa-4,5,18,19-tetraazatetracyclo [12.5.2.1^2,5.0^17,20]docosa-1(19),2(22),3,14(21),15,17(20)-hexaene] | < 10 |
| C[C@@H]1CCn2ncc(n2)-c2n[nH]c3ccc(cc23)O[C@H](C)CCO1 [Example 127, (8R,12R)-8,12-dimethyl-9,13-dioxa-4,5,18,19,22-pentaazatetracyclo [12.5.2.1^2,5.0^17,20]docosa-1(19),2(22),3,14(21),15,17(20)-hexaene] | < 10 |
| C[C@@H]1CCCOC[C@@H](C)n2cc(cn2)-c2n[nH]c3ccc(cc23)O1 [Example 128, (6R,12R)-6,12-dimethyl-8,13-dioxa-4,5,18,19-tetraazatetracyclo[12.5.2.1^2,5.0^17,20]docosa-1(19),2(22),3,14(21),15,17(20)-hexaene] | < 10 |
| C[C@H]1COc2ccc3[nH]nc(c3c2)-c2cnn(c2)CCCOCCO1 [Example 129, (13S)-13-methyl-9,12,15-trioxa-4,5,20,21-tetraazatetracyclo[14.5.2.1^2,5.0^19,22]tetracosa-1(21),2(24),3,16(23),17,19(22)-hexaene] | < 100 |
| C[C@@H]1COCCCCn2ncc(n2)-c2n[nH]c3ccc(cc23)O1 [Example 130, (12R)-12-methyl-10,13-dioxa-4,5,18,19,22-pentaazatetracyclo[12.5.2.1^2,5.0^17,20] docosa-1(19),2(22),3,14(21),15,17(20)-hexaene] | < 100 |
| C[C@@H]1CCOCCOCCn2cc(cn2)-c2n[nH]c3ccc(cc23)O1 [Example 131, (14R)-14-methyl-8,11,15-trioxa-4,5,20,21-tetraazatetracyclo[14.5.2.1^2,5.0^19,22]tetracosa-1(21),2(24),3,16(23),17,19(22)-hexaene] | < 10 |
| C[C@@H]1C[C@H](C)OCCCOc2ccc3[nH]nc(c3c2)-c2cnn1c2 [Example 132, (6R,8S)-6,8-dimethyl-9,13-dioxa-4,5,18,19-tetraazatetracyclo[12.5.2.1^2,5.0^17,20]docosa-1(19),2(22),3,14(21),15,17(20)-hexaene] | < 100 |
| C[C@@H]1CCOCCOCCn2ncc(n2)-c2n[nH]c3ccc(cc23)O1 [Example 133, (14R)-14-methyl-8,11,15-trioxa-4,5,20,21,24-pentaazatetracyclo[14.5.2.1^2,5.0^19,22]tetracosa-1(21),2(24),3,16(23),17,19(22)-hexaene] | < 100 |

The next lines start with the values.

| IC50 [nM] | SMILES |
| --- | --- |
| < 10 | C[C@H]1COCCOC[C@H](C)n2cc(cn2)-c2n[nH]c3ccc(cc23)O1 [Example 101, (6S,13S)-6,13-dimethyl-8,11,14-trioxa-4,5,19,20-tetraazatetracyclo[13.5.2.1^2,5.0^18,21]tricosa-1(20),2(23),3,15(22),16,18(21)-hexaene] |
| < 10 | c1cc2[nH]nc3c2cc1OCCCCOCCn1cc-3cn1 [Example 102, 8,13-dioxa-4,5,18,19-tetraazatetracyclo[12.5.2.1^2,5.0^17,20]docosa-1(19),2(22),3,14(21),15,17(20)-hexaene] |
| < 10 | C[C@@H]1CCOCC[C@H](C)n2ncc(n2)-c2n[nH]c3ccc(cc23)O1 [Example 103, (6S,12R)-6,12-dimethyl-9,13-dioxa-4,5,18,19,22-pentaazatetracyclo[12.5.2.1^2,5.0^17,20]docosa-1(19),2(22),3,14(21),15,17(20)-hexaene] |
| < 10 | c1cc2[nH]nc3c2cc1OCCOCCCCn1cc-3cn1 [Example 104, 10,13-dioxa-4,5,18,19-tetraazatetracyclo[12.5.2.1^2,5.0^17,20]docosa-1(19),2(22),3,14(21),15,17(20)-hexaene] |
| < 10 | [2H]C1([2H])OCCn2cc(cn2)-c2n[nH]c3ccc(cc23)OC[C@H](C)OC1([2H])[2H] [Example 107, (12S)-12-methyl(9,9,10,10-^2H4)-8,11,14-trioxa-4,5,19,20-tetraazatetracyclo [13.5.2.1^2,5.0^18,21]tricosa-1(20),2(23),3,15,17,21-hexaene] |
| < 10 | c1cc2[nH]nc3c2cc1OCCCCCOCCn1cc-3cn1 [Example 108, 8,14-dioxa-4,5,19,20-tetraazatetracyclo[13.5.2.1^2,5.0^18,21]tricosa-1(20),2(23), 3,15(22),16,18(21)-hexaene] |
| < 10 | [2H]C1([2H])OCCO[C@@H](C)COc2ccc3[nH]nc(c3c2)-c2cnn(c2)C1([2H])[2H] [Example 110, (12S)-12-methyl(6,6,7,7-2H4)-8,11,14-trioxa-4,5,19,20-tetraazatetracyclo [13.5.2.1^2,5.0^18,21]tricosa-1(20),2(23),3,15(22),16,18(21)-hexaene] |
| < 10 | C[C@H]1COc2ccc3[nH]nc(c3c2)-c2cnn(c2)CCCCCO1 [Example 112, (12S)-12-methyl-11,14-dioxa-4,5,19,20-tetraazatetracyclo[13.5.2.1^2,5.0^18,21] tricosa-1(20),2(23),3,15(22),16,18(21)-hexaene] |
| < 10 | C[C@H]1OCCOCCn2cc(cn2)-c2n[nH]c3ccc(cc23)O[C@@H]1C [Example 113, (12R,13R)-12,13-dimethyl-8,11,14-trioxa-4,5,19,20-tetraazatetracyclo [13.5.2.1^2,5.0^18,21]tricosa-1(20),2(23),3,15(22),16,18(21)-hexaene] |
| < 10 | C[C@@H]1OCCOCCn2cc(cn2)-c2n[nH]c3ccc(cc23)O[C@H]1C [Example 114, (12S,13S)-12,13-dimethyl-8,11,14-trioxa-4,5,19,20-tetraazatetracyclo [13.5.2.1^2,5.0^18,21]tricosa-1(20),2(23),3,15(22),16,18(21)-hexaene] |
| < 10 | c1cc2[nH]nc3c2cc1OCCCCOCCn1ncc-3n1 [Example 115, 8,13-dioxa-4,5,18,19,22-pentaazatetracyclo[12.5.2.1^2,5.0^17,20]docosa-1(19),2(22),3,14(21),15,17(20)-hexaene] |
| < 10 | FC1(F)COCCCOc2ccc3[nH]nc(c3c2)-c2cnn(c2)C1 [Example 118, 7,7-difluoro-9,13-dioxa-4,5,18,19-tetraazatetracyclo[12.5.2.1^2,5.0^17,20] docosa-1(19),2(22),3,14(21),15,17(20)-hexaene] |
| < 10 | C[C@@H]1CCOCC(F)(F)Cn2cc(cn2)-c2n[nH]c3ccc(cc23)O1 [Example 120, (12R)-7,7-difluoro-12-methyl-9,13-dioxa-4,5,18,19-tetraazatetracyclo [12.5.2.1^2,5.0^17,20]docosa-1(19),2(22),3,14(21),15,17(20)-hexaene] |
| < 10 | C1=C/COCCOc2ccc3[nH]nc(c3c2)-c2cnn(c2)CC/1 [Example 121, (8E)-11,14-dioxa-4,5,19,20-tetraazatetracyclo[13.5.2.1^2,5.0^18,21]tricosa-1(20),2(23),3,8,15(22),16,18(21)-heptaene] |
